Laboratory results: patent US11400070B2, “Methods of treating retinal diseases” (Alimera Sciences, Inc., priority 2018, dated 2022)
Like-named read-outs stand apart in the source and are kept apart here.

Columns and labels:
ARPE-19 monolayers [1] = test: Suppression of gHSA-induced reduction of TEER in confluent ARPE-19 monolayers; assay type: cell-based
ARPE-19 monolayers [2] = test: Cytotoxicity by microscopic inspection of monolayers and TEER reduction; assay type: cell-based; details: for Cytotoxic: ARPE-19 monolayers, any concentration tested; for Cytotoxicity observed: any of the concentrations tested
Protocol: Cytotoxicity of test compounds was assessed by microscopic inspection of cellular monolayers and reductions in TEER following the administration of test compounds. All compounds were formulated fresh on the day of the experiment. Final concentrations were prepared by serial dilutions in DMEM media. Separate vehicle controls were prepared for each study. Formulation for all agents utilized vehicles containing less than 0.1% DMSO.

rd10 mice [3] = test: Immunohistochemistry (rhodopsin, cone arrestin, 3-nitrotyrosine) of rd10 retinas; assay type: in vivo, mouse; details: 40 mg/kg daily s.c.
Protocol: (§1) Mice were treated in accordance with the Association for Research in Vision and Ophthalmology. Rd10^+/+ mice (B6.CXB1-Pde6brd10/J) were given daily subcutaneous injections of 40 mg/kg metipranolol provided by the British Pharmacopoeia Commission Laboratory, Tddington, UK or vehicle (PBS containing 5.8% ethanol) between P14 to P65.
Ten microns ocular frozen sections were stained with anti-rhodopsin antibody 1D4 (1:200, ThermoFisher Scientific, Waltham, Mass.), anti-3-nitrotyrosine antibody (10 μg/ml, EMD Millipore, Temecula, Calif.) or anti-cone arrestin antibody (1:10,000, EMD Millipore, Temecula, Calif.).

NADPH Oxidase = NADPH Oxidase activity in retinas of rd10 mice; assay type: in vivo, mouse
rd10 mice [4] = test: TUNEL assay in retinas of rd10 mice; assay type: in vivo, mouse; details: P23; 40 mg/kg daily s.c.
Protocol: as §1
Apoptotic cells were identified in retinas from P23 mice using the manufacturer's instructions for the In Situ Cell Death Detection Kit (Sigma Aldrich, St. Louis, Mo.).

rd10 mice [5] = test: Cone cell density in rd10 mice; assay type: in vivo, mouse; details: P65; 40 mg/kg daily s.c.; 4 quadrants
Protocol: as §1
Cone cell density was measured by methods known by one of skill in the arts. See Komeima K, Rogers B S, Lu L, Campochiaro P A. Antioxidants reduce cone cell death in a model of retinitis pigmentosa. Proc Natl Acad Sci USA 2006; 103:11300-5 and Komeima K, Rogers B S, Campochiaro P A. Antioxidants slow photoreceptor cell death in mouse models of retinitis pigmentosa. J Cell Physiol 2007; 213:809-15. Briefly, mice at P65 were euthanized and the eyes were removed and fixed in 4% PFA for 1 hour followed by dissection to remove cornea, iris and lens. The retina was carefully isolated from the eyecup and a small incision was made at the nasal position for future orientation. […] The retinas were flat mounted and visualized by fluorescence microscopy using an excitation wavelength of 543 nm to detect rhodamine fluorescence of PNA.

rd10 mice [6] = test: Scotopic and photopic electroretinogram recordings in rd10 mice; assay type: in vivo, mouse
Protocol: as §1
Scotopic and photopic electroretinograms (ERGs) were recorded using a Diagnosys instrument (Espion, Littleton, Mass.). See Komeima K, Rogers B S, Lu L, Campochiaro P A. Antioxidants reduce cone cell death in a model of retinitis pigmentosa. Proc Natl Acad Sci USA 2006; 103:11300-5 and Komeima K, Rogers B S, Campochiaro P A. Antioxidants slow photoreceptor cell death in mouse models of retinitis pigmentosa. J Cell Physiol 2007; 213:809-15. For scotopic recordings, rd10 mice were dark adapted for overnight, anesthetized with a mixture of ketamine (100 mg/kg) and xylazine (5 mg/kg) by intraperitoneal injections, and pupils were dilated with 0.5% tropicamide and 0.5% phenylephrine hydrochloride provided by Santen Pharmaceutical Co., Osaka, Japan. Mice were placed on a heating pad and platinum electrodes were placed on the corneas after application of gonioscopic prism solution provided by Alcon Labs, Fort Worth, Tex. Reference electrode was attached subcutaneously between the eyes on the scalp and a ground electrode was attached to the tail. The Ganzfeld illuminator was then placed over the head in a position to ensure equal illumination to both eyes. Scotopic ERGs were recorded at 11 flash intensities (−4, −2.5, −2.2, −1.79, −1.39, −1, −0.6, −0.39, −0.20, 1.0, 1.39 log cd-s/m2). For each flash intensity, 5 readings were taken and averaged. For photopic ERGs, mice were initially light adapted for 7 minutes with 30 cd/m2 background light and flashed at 3 light intensities (0.6, 1.0, 1.39 log cd-s/m2). For each flash intensity, 5 readings were taken and averaged.

rd10 mice [7] = test: Superoxide radicals (dihydroethidium dye) in rd10 retinas; assay type: in vivo, mouse; details: data not shown
rd10 mice [8] = test: Nitrite and nitrotyrosine assays in retinas of rd10 mice; assay type: in vivo, mouse; details: 40 mg/kg daily s.c.
Protocol: as §1
Nitrite concentration in retinas from P35 rd10 mice was measured using the Nitrate/Nitrite Colorimetric Assay Kit (Cayman Chemical Company, Ann Arbor, Mich.) according to the manufacturer's instructions. Nitrotyrosine assay was performed on retinas from P35 mice using the 3-Nitrotyrosine ELISA kit (Abcam, Cambridge, Mass.).

rd10 mice [9] = test: Outer nuclear layer (ONL) thickness in rd10 mice; assay type: in vivo, mouse; details: P35; 40 mg/kg daily s.c.; 6 locations measured
Protocol: as §1
Measurements of ONL thickness were performed using methods known to one of skill in the art. See Lee S Y, Usui S, Zafar A B, et al. N-acetylcysteine promotes long term survival of cones in a model of retinitis pigmentosa. 2010; 226:1843-9. Briefly, 10 micron frozen ocular sections were cut in the 12:00 to 6:00 meridian, stained with hematoxylin and eosin, visualized with an Axioskop microscope from Zeiss, Thornwood, N.Y. and images were digitized using a three charge-coupled device (CCD) color video camera from Toshiba, Tokyo, Japan, and a frame grabber. […] Three separate sections were used for each mouse and averaged. Eight animals injected with vehicle and 9 animals injected with metipranolol were used to evaluate ONL thickness between these two groups.

C57bl/6 female mice = test: Laser-induced choroidal neovascularization at Bruch's membrane rupture sites; assay type: in vivo, mouse; details: 40 mg/kg daily s.c., 3 days before to 1 week after laser
Protocol: Choroidal neovascularization was induced by methods known to one of ordinary skill in the art. […] Am J Pathol 1998; 153(5):1641-6. Adult C57bl/6 female mice (Charles River, Wilmington, Mass.), 5 weeks of age, were given daily subcutaneous injections of 40 mg/kg metipranolol or vehicle (PBS containing 5.8% ethanol) every day, starting 3 days before laser-induced Bruch's membrane rupture and continuing through 1 week after laser treatment. Mice were anesthetized, with a mixture of ketamine (100 mg/kg) and xylazine (5 mg/kg) by intraperitoneal injections, and pupils were dilated with 0.5% tropicamide and 0.5% phenylephrine hydrochloride from Santen Pharmaceutical Co., Osaka, Japan. […] Following 1 week after laser, animals were euthanized and choroidal neovascularization was measured. […] The remaining eyecups consisting of the retinal pigmented epithelium, choroid, and sclera were stained with FITC-labeled Griffonia Simplicifolia lectin (GSA), which selectively stains vascular cells, fluorescent images were captured with an Axioskop microscope from Zeiss, Thornwood, N.Y., and the area of choroidal neovascularization at Bruch's membrane rupture sites were measured. These images were quantified using Image-Pro Plus software. […]

Structure (SMILES): Cc1cc(OCC(O)CNC(C)C)c(C)c(C)c1O (centres unmarked) [Desacetylmetipranolol, desacetylmetipranolol]
- Effect on gHSA induced reduction in RPE resistance (TEER) (ARPE-19 monolayers [1]; pretreatment 10 μM, 4 and 6 hours after gHSA): suppressed the gHSA induced reduction in RPE resistance
- EC50 (ARPE-19 monolayers [1]; read-out: EC50 for suppression of the decrease in TEER induced by gHSA, pretreatment, gHSA 100 μg/mL): 980 nM
- Cytotoxic (ARPE-19 monolayers [2]): No
- Cytotoxicity observed (ARPE-19 monolayers [2]): No cytotoxicity was observed

Structure (SMILES): CC1(C)O[C@@H]2C[C@H]3[C@@H]4C[C@H](F)C5=CC(=O)C=C[C@]5(C)[C@@]4(F)[C@@H](O)C[C@]3(C)[C@]2(C(=O)CO)O1 [Fluocinolone, fluocinolone acetonide]
- Effect on reduction in TEER induced by gHSA (ARPE-19 monolayers [1]; pretreatment 10^−6 to 10^−4 M, gHSA 100 μg/mL): did not significantly alter
- Cytotoxic (ARPE-19 monolayers [2]): No
- Cytotoxicity observed (ARPE-19 monolayers [2]): No cytotoxicity was observed

Structure (SMILES): CC(=O)Oc1c(C)cc(OCC(O)CNC(C)C)c(C)c1C (centres unmarked) [Metipranolol, metipranolol]
- EC50 (ARPE-19 monolayers [1]; Homo sapiens, ARPE-19 assay, concentration-response, gHSA-induced TEER decrease, read-out: EC50): 1300 nM
- Rhodopsin staining of outer segments (rd10 mice [3]; P35): substantially more rhodopsin staining
- Staining for cone arrestin (rd10 mice [3]; P50): robust
- Staining for nitrotyrosine (rd10 mice [3]; P50): greater staining for nitrotyrosine in retinas from P50 vehicle-treated rd10 mice, than in P50 metipranolol-treated rd10 mice
- NADPH Oxidase activity (NADPH Oxidase): did not reduce NADPH Oxidase activity
- TUNEL-positive cells in retina (rd10 mice [4]): few TUNEL-positive cells
- Mean cone photoreceptor cell density vs vehicle (rd10 mice [5]): significantly greater in 3 of 4 quadrants
- Mean scotopic b-wave amplitude vs vehicle (rd10 mice [6]; P35, 40 mg/kg daily s.c. from P14, all 11 flash intensities): significantly higher
- Mean scotopic a-wave amplitude vs vehicle (rd10 mice [6]; P35, 40 mg/kg daily s.c. from P14, flash 1.0 and 1.39 log cd-s/m2): significantly greater
- Photopic b-wave amplitudes vs vehicle (rd10 mice [6]; P35, 40 mg/kg daily s.c., 0.6 and 1.0 log cd-s/m2): significantly higher
- Mean scotopic b-wave amplitude vs vehicle (rd10 mice [6]; P50, 40 mg/kg daily s.c., 1.0 and 1.39 log cd-s/m2): significantly higher
- Mean photopic b-wave amplitude vs vehicle (rd10 mice [6]; P50, 40 mg/kg daily s.c., 1.39 log cd-s/m2): significantly greater
- Superoxide radicals (dihydroethidium dye) vs vehicle (rd10 mice [7]): no differences were found
- Cytotoxic (ARPE-19 monolayers [2]): No
- Cytotoxicity observed (ARPE-19 monolayers [2]): No cytotoxicity was observed
- Mean concentration of nitrite in retinal homogenates (rd10 mice [8]; P35): significantly greater in retinal homogenates from P35 vehicle-treated versus metipranolol-treated rd10 mice
- Mean concentration of 3-nitrotyrosine protein adducts (ELISA) vs vehicle (rd10 mice [8]; P35 retinas): significant reduction
- Mean ONL thickness vs vehicle (rd10 mice [9]): significantly greater at 4 of the 6 locations
- Area of choroidal neovascularization at Bruch's membrane rupture sites vs vehicle (C57bl/6 female mice): significantly reduced
